Data reported in patent US8569511B2, “Substituted 3-(1H-benzo[d]imidazol-2-yl)-1H-indazole analogs as inhibitors of the PDK1 kinase” (University of Utah Research Foundation, priority 2011, dated 2013).
Read-outs that look alike come from different tables or passages of the source.

Key:
[1] = Pharmacokinetics in mice (iv and po); format: in vivo; conditions: for Vd: read-out: Vss
Description: Pharmacokinetic parameters were determined by dosing mice by oral (“po”) and intravenous (“iv”) administration of two representative disclosed compounds.
The vehicle was 1% DMSO, 10% ethanol, 35% PEG 400, and the balance H2O. Blood was collected (about 50 μl per individual animal) into heparin-containing collection tubes, and cells were removed by centrifugation. The concentration of compound was determined at the indicated time points for each sample using mass spectrometry. […] PK parameters were calculated using WinNonLin (Pharsight Products, Saint Louis, Mo.). […] The level detected at 0.08 hr was 9 ng/ml±5.0 ng/ml.
Vehicle, sample collection and analysis is as described above.

AN3-CA cells = assay: Cell viability assay (ATP-lite); format: cell-based
Description: (§1) AN3-CA (PTEN-deficient), RL95-2 (PTEN-deficient), and HEC-1A (PTEN-wild type) cells were plated in 45 μl of RPMI-1640 media supplemented with 10% FBS and 1% Pen/Strep at a density of 1000 cells per well in white 384-well plates. Cells were allowed to attach by incubation overnight at 37° C. and 5% CO2. Test compounds were diluted to 10× concentrations in RPMI-1640 media (containing 3% DMSO) and 5 μl 1 of these dilutions were added in triplicate to the appropriate wells containing the cells. The plates containing the drug-treated cells and appropriate controls were incubated for 96 hours. At the end of the incubation, 40 μl of ATP-lite (PerkinElmer, Inc., Waltham, Massachussetts) reagent were added to each well and luminescence signal was measured on an EnVision microplate reader.
Alternatively, AN3-CA, RL95-2, HEC-1A endometrial cancer cell lines were plated at a density of 2000 cells per well in a 96 well culture plate in 45 μl of cell culture media and incubated overnight. The following day, test compounds were added to the cells in 5 μl of serum-free media to generate final concentrations of 10, 3, 1, 0.3, 0.1, 0.03, 0.01, or 0.003 μM. Vehicle treated controls were also included and each condition was applied in quadruplicate. Following 96 hours of incubation, 35 μL of ATP-lite (PerkinElmer) reagent was added each well and allowed to react for 10 minutes. Plate was read on a Envision 2104 MultiLabel reader (PerkinElmer).
(§2) IC50 values are determined using GraphPad Prism 5 software. The data were entered as an X-Y plot into the software as percent inhibition for each concentration of the drug. The concentration values of the drug were log transformed and the nonlinear regression was carried out using the “sigmoidal dose-response (variable slope)” option within the GraphPad software to model the data and calculate IC50 values.

HS578T cell line = assay: Cell viability after PTEN shRNA knockdown; format: cell-based; conditions: Homo sapiens, Hs-578T
Description: The lentiviral particles with PTEN shRNA or scrambled siRNA (ssi RNA) were purchased from Thermo Scientific. The cells were seeded in a 24-well plate and incubated overnight in RPMI full media. The media was removed and the cells were transfected with either siRNA or ssiRNA particles in serum/antibiotic free RPMI media. Six hours post-transduction, 1 ml of full media (serum plus penicillin/streptomycin) was added and the cells were incubated overnight. At 48 hours post-transduction fresh media with puromycin was added. The media was replaced with fresh puromycin containing media every 2 days. qPCR and western blot analysis was used to evaluate the level of PTEN knockdown.
as §1
In the figures, cell viability is shown as “Toxicity” and the cell viability assay was carried out as described above.

PDK1 [2] = biological target: T1, PDK1 (Homo sapiens (Human), UniProt O15530); assay: Time resolved-FRET LanthaScreen Kinase Binding Assay
Text: Binding of the tracer to the kinase is detected using a europium-labeled anti-tag antibody, which binds to the kinase of interest. […] Binding of an inhibitor to the kinase competes for binding with the tracer, resulting in a loss of FRET.
Activity of compounds was routinely assessed using a secondary assay as described herein. The secondary assay was a time resolved-FRET LanthaScreen Kinase Binding Assay (Invitrogen Corporation, Carlsbad, Calif.). This assay evaluates the ability of the test compound to compete with a fluorescently-labeled tracer molecule to bind in the ATP pocket of a kinase. The assay signal is generated when a Europium-conjugated anti-His tag antibody (Invitrogen) bound to the His-tagged kinase produces a TR-FRET signal with the tracer molecule bound in the ATP pocket of the kinase. […] After 60 minutes of incubation at room temperature, the TR-FRET signal was measured on an EnVision microplate reader.
as §2

PDK1 [3] = biological target: T1, PDK1; assay: PDK1 ATP Depletion Kinase Assay (Kinase-Glo luminescence); format: biochemical; conditions: PDKtide substrate, read-out: PDK1 Kinase assays (IC50, μM) Activity Assay
Description: Test compounds were diluted to desired concentrations in kinase reaction buffer and briefly incubated with human recombinant PDK1 kinase which is histidine-tagged (Invitrogen Corporation, Carlsbad, Calif.). The reaction was subsequently initiated by the addition of ATP and PDKtide substrate (Millipore Corporation, Billerica, Massachussetts). […] After an incubation of 60 minutes at room temperature, 10 μl of the Kinase-Glo reagent (Promega Corporation, Madison, Wis.) was added to each well and incubated for an additional 10 minutes. Luminescence was measured on an EnVision microplate reader (PerkinElmer). The amount of luminescence from each reaction is inversely correlated with PDK1 kinase activity. Percent inhibition and IC50 values can be calculated by comparing enzyme activity in drug-treated wells to the appropriate controls, e.g. vehicle control.
as §2

[4] = mouse, plasma, po (Table VIII, dose not given)
[5] = Homo sapiens, AN3-CA, AN3-CA (PTEN and PIK3R1 mutations), read-out: Cell Viability IC50 AN3-CA
[6] = PTEN knockdown shRNA, read-out: IC50 for cell viability, PTEN knockdown shRNA cells
[7] = TR-FRET Lanthascreen Kinase Binding Assay, read-out: PDK1 Kinase assays (IC50, μM) Binding Assay
[8] = tested in triplicate, FIG. 5, read-out: IC50 in PDK1 time resolved-FRET LanthaScreen Kinase Binding Assay

T1 sequence (O15530 whole entry): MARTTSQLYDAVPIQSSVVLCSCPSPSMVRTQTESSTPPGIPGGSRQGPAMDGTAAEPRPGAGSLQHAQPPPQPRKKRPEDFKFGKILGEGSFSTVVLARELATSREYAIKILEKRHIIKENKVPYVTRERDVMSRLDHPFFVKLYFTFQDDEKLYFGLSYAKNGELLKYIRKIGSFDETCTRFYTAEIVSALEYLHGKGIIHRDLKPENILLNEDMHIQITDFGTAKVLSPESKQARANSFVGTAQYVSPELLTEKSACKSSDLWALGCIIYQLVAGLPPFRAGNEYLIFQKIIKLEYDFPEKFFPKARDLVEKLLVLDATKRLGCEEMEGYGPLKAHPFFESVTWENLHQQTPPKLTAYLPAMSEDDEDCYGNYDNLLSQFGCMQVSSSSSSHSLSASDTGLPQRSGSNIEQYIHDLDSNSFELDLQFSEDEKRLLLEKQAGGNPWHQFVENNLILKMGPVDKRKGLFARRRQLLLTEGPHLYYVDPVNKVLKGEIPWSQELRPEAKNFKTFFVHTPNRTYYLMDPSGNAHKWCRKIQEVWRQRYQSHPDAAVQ

AUC(0-t) ([1]; mouse, plasma, iv, 5.0 mg/kg) | Cmax ([1]; mouse, plasma, iv, 5.0 mg/kg) | Tmax ([1]; mouse, plasma, iv, 5.0 mg/kg) | clearance ([1]; mouse, plasma, iv, 5.0 mg/kg) | half-life ([1]; mouse, plasma, iv, 5.0 mg/kg) | Vd ([1]; mouse, plasma, iv, 5.0 mg/kg) | IC50 (PDK1 [2]; [7]) | IC50 (PDK1 [2]; [8]) | IC50 (PDK1 [3]) | Compound | IC50 (AN3-CA cells; [5]) | IC50 (HS578T cell line; [6]) | other results
516 ng·h/mL | 1840 ng/mL | 4.8 min | 161 mL/min/kg | 24 min | 1.6 L/kg | 0.08 µM | 0.08 µM | 0.143 µM | O=C(Nc1ccc2[nH]nc(-c3nc4ccc(N5CCOCC5)cc4[nH]3)c2c1)C1CC1(F)F (centres unmarked) [Compound 1, 2,2-difluoro-N-(3-(5-morpholino-1H-benzo[d]imidazol-2-yl)-1H-indazol-5-yl)cyclopropanecarboxamide] | 27 nM | 1200 nM | Cmax [1, 4]: 9 ng/mL; Tmax [1, 4]: 15 min; concentration at 0.08 hr ([1]; mouse, plasma, po, at 0.08 hr, read-out: Level detected after oral administration): 9 ng/mL; Level after oral administration (in words) ([1]; po, after 0.08 hr): below the limit of detection; Potency in cell viability assay, AN3-CA (in words) (AN3-CA cells; FIG. 6): most potent; IC50 (AN3-CA cells; Homo sapiens, AN3-CA, Table VI panel, mutation PTEN, PIK3R1, read-out: IC50 cell viability, AN3-CA): 48 nM; IC50 (AN3-CA cells; Homo sapiens, AN3-CA, read-out: IC50 cell viability, AN3-CA cells): 27 nM
1280 ng·h/mL | 4530 ng/mL | 4.8 min | 65 mL/min/kg | 24 min | 0.63 L/kg | 0.094 µM | 0.094 µM | 0.159 µM | CC1CN(c2ccc3nc(-c4n[nH]c5ccc(NC(=O)C6CC6(F)F)cc45)[nH]c3c2)CCO1 (centres unmarked) [Compound 2, 2,2-difluoro-N-(3-(5-(2-methylmorpholino)-1H-benzo[d]imidazol-2-yl)-1H-indazol-5-yl)cyclopropanecarboxamide] | < 30 nM | 800 nM | AUC(0-t) ([1]; mouse, plasma, po, 30 mg/kg): 244 ng·h/mL; Cmax ([1]; mouse, plasma, po, 30 mg/kg): 53 ng/mL; Tmax ([1]; mouse, plasma, po, 30 mg/kg): 15 min; bioavailability ([1]; mouse, plasma, po, 30 mg/kg): 19%; IC50 (AN3-CA cells; AN3-CA (PTEN and PIK3R1 mutations), listed as Test Compound 2, read-out: Cell Viability IC50 AN3-CA): 23 nM; IC50 (HS578T cell line; control (scrambled) treated cells, read-out: IC50 for cell viability, control treated cells): 2200 nM
